Reference: ChEMBL document CHEMBL1201862, “PubChem BioAssay data set” (2004)
Structures can show the parent of a compound that is named as a salt. Active and inactive are the calls of the source.

Tests used:
HEK293 [1] = experiment: inhibitors of LMP1-driven NF-kB reporter, dose response, cell-based, HEK293, luciferase, cherry-pick (AID 588343); type: functional; settings: Homo sapiens
Escherichia coli [2] = experiment: microbe, parasite or virus in culture
Escherichia coli [3] = experiment: microbe, parasite or virus in culture; remark: listed apart in the source
HeLa = experiment: HeLa cell cytotoxicity, dose response, cytotoxicity control for MITF activator project, CellTiter-Glo luminescence, cherry-pick samples (AID 540259); type: functional, cell-based; settings: Homo sapiens
[4] = target: T1, Nuclear receptor subfamily 0 group B member 1 (Homo sapiens, UniProt P51843); experiment: Luminescence-based cell-based high throughput dose response assay for inhibitors of the orphan nuclear receptor subfamily 0, group B, member 1 (DAX1; NR0B1). [Related pubchem assays (depositor defined):AID504766, AID504790]; type: functional
T1 sequence (P51843 whole entry): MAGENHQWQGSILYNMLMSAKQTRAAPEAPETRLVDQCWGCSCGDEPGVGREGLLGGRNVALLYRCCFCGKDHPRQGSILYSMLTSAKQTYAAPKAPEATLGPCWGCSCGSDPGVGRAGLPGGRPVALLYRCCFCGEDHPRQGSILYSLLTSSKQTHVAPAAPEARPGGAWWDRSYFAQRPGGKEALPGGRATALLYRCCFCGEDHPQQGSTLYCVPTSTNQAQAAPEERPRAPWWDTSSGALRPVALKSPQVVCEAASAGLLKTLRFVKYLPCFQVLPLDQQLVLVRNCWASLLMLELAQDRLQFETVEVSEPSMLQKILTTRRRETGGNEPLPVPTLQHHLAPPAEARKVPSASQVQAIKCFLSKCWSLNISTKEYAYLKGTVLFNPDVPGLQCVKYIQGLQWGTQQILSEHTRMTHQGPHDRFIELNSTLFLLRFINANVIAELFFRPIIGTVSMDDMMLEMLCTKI

HEK293 [5] = experiment: cells; type: functional, cell-based; settings: Homo sapiens
[6] = target: T2, Peroxisome proliferator-activated receptor gamma/Nuclear receptor coactivator 3 (Homo sapiens, UniProt P37231); experiment: TR-FRET dose response biochemical High Throughput Screening assay for agonists of the steroid receptor coactivator 3 (SRC-3) recruitment by the peroxisome proliferator-activated receptor gamma (PPAR gamma): non-selective agonists. [Related pubchem assays: 1301 (Confirmation screen.), 1048 (Primary screen.)]; type: functional
[7] = target: T3, Peroxisome proliferator-activated receptor gamma/Nuclear receptor coactivator 1 (Homo sapiens, UniProt P37231); experiment: TR-FRET dose response biochemical High Throughput Screening assay for agonists of the steroid receptor coactivator 1 (SRC-1) recruitment by the peroxisome proliferator-activated receptor gamma (PPAR gamma): non-selective agonists. [Related pubchem assays (depositor defined):AID1300, AID1808, AID504735, AID631]; type: protein assay
[8] = target: T4, Peroxisome proliferator-activated receptor gamma/Nuclear receptor coactivator 2 (Homo sapiens, UniProt P37231); experiment: TR-FRET dose response biochemical High Throughput Screening assay for agonists of the steroid receptor coactivator 2 (SRC-2) recruitment by the peroxisome proliferator-activated receptor gamma (PPAR gamma): non-selective agonists. [Related pubchem assays: 1297, 1032 ]; type: functional
[9] = target: T5, Ubiquitin-conjugating enzyme E2 N (Homo sapiens, UniProt P61088); type: functional
T5 sequence (P61088 whole entry): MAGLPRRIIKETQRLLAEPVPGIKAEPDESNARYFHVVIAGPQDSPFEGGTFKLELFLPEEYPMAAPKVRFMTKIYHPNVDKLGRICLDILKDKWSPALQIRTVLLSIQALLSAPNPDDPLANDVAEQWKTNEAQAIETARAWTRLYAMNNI

[10] = target: T5, Ubiquitin-conjugating enzyme E2 N; type: functional; remark: listed apart in the source
Bcl-2-related protein A1 = target: T6, Bcl-2-related protein A1 (Mus musculus, UniProt Q07440); type: functional;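 further: confirmatory dose–response counterscreen on Bfl-1, used to check hits from a UBC13 polyubiquitin inhibitor campaign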
T6 sequence (Q07440 whole entry): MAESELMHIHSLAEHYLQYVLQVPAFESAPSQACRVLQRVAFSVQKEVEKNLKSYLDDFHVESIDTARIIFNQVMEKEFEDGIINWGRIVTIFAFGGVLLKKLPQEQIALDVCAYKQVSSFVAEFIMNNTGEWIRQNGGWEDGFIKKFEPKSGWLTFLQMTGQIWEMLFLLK

Aminopeptidase N = target: T7, Aminopeptidase N (Plasmodium falciparum FcB1/Columbia, UniProt O96935); experiment: P. falciparum M1AAP inhibitors, biochemical, fluorogenic H-Leu-NHMec substrate, 1536-well (AID 1445); design: species or system Plasmodium falciparum 3D7, 3D7
T7 sequence (O96935 whole entry): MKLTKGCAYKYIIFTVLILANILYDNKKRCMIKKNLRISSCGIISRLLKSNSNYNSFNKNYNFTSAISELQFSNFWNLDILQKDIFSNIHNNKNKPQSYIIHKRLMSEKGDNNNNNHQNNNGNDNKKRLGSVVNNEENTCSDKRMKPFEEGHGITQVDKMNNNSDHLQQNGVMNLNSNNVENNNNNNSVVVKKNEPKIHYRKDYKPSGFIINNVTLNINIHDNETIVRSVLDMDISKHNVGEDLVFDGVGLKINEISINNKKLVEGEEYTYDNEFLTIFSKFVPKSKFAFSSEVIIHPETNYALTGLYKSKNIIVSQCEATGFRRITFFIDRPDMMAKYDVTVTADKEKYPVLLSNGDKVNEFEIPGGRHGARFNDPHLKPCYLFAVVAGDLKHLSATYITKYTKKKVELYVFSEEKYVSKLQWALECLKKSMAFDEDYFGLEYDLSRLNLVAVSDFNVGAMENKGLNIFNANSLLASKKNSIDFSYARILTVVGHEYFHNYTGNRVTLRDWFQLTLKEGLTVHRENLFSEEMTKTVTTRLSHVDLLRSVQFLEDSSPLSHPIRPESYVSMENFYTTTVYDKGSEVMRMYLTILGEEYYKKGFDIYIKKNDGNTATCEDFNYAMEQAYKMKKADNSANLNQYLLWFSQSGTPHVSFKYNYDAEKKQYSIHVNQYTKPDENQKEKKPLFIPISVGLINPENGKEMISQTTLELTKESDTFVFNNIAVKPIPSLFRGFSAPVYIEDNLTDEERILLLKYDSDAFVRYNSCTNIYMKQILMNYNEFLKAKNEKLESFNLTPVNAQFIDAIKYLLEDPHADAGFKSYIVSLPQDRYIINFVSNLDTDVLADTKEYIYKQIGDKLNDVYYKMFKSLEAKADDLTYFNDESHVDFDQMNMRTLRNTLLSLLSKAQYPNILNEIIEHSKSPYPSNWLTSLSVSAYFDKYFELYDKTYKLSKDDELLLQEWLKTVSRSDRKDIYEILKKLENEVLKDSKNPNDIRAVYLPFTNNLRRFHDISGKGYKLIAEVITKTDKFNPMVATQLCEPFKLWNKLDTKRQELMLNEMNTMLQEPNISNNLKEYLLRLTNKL

Vero = experiment: cells; type: functional; settings: Chlorocebus sabaeus
[11] = inhibitors of intracellular T. cruzi replication, confirmation, NIH3T3 host cells, beta-gal luminescence (AID 2044); type: functional, cell-based;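 further: intracellular parasites grown in NIH/3T3 mouse fibroblasts as host cells; luminescent beta-galactosidase reporter signal from transgenic T. cruzi replicating inside host cells; inhibitors lower the luminescence signal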
[12] = target: T3, Peroxisome proliferator-activated receptor gamma/Nuclear receptor coactivator 1; type: functional
[13] = target: T4, Peroxisome proliferator-activated receptor gamma/Nuclear receptor coactivator 2; type: functional
[14] = cytotoxicity toward NIH3T3 fibroblasts, dose response, counter-screen, cell-based, ATP luminescence, mouse fibroblasts (AID 2010); type: functional;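 further: cells exposed to compound for about 90 hours before reading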
[15] = target: T2, Peroxisome proliferator-activated receptor gamma/Nuclear receptor coactivator 3; type: functional
[16] = THP-1 cell cytotoxicity, dose response, cytotoxicity control for non-replicating M. tuberculosis project (AID 489025); type: functional
H4 = experiment: Luminescence Cell-Based Dose Response HTS to Identify Activators of 5'UTR Stem-Loop Driven Prion Protein mRNA Translation in H4 Neuroglioblastoma Cells. [Related pubchem assays: 1829 (Project Summary), 1814 (Primary HTS)]; type: functional; settings: Homo sapiens
[17] = Luminescence Cell-Based Dose Confirmation HTS to Identify Activators of 5'UTR Stem-Loop Driven Alpha-Synuclein mRNA Translation in H4 Neuroglioblastoma Cells. [Related pubchem assays: 1829 (Project Summary), 1814 (Primary HTS)]; type: functional
cells = type: functional
[18] = Luminescence Cell-Based Dose Response HTS to Identify Activators of Luciferase Translation or Activity in H4 […] Cells. [Related pubchem assays: 1829 (Project Summary), 1814 (Primary HTS)]; type: functional
[19] = cytotoxicity in HEK-293T cells, dose response, cytotoxicity control for TCR NF-kB inhibitor project, luminescence, T-cell screen hits (AID 489026); type: functional, cell-based;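 further: cells exposed to compound about 14 hours before the viability readout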
[20] = inhibitors of SNCA 5'UTR-driven reporter translation, confirmation, H4 neuroglioma cells, luminescence (AID 1988); type: functional, cell-based
[21] = cytotoxicity toward DRD oncogenic fibroblasts, dose response, cell-based, non-viral oncogenic, luminescence (AID 1934); type: functional; settings: Homo sapiens
BJ [22] = experiment: cytotoxicity toward BJ-TERT fibroblasts, dose response, cell-based, RAS-independent, luminescence (AID 1933); type: functional; settings: Homo sapiens
BJ [23] = experiment: cells; type: functional, cell-based; settings: Homo sapiens
BJ [24] = experiment: cytotoxicity toward BJ-TERT-LT-ST fibroblasts, dose response, cell-based, RAS-independent, luminescence (AID 1935); type: functional; settings: Homo sapiens;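 further: BJ fibroblasts immortalized with TERT plus LT and ST oncogenes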
[25] = Luminescence Cell-Based Dose Response HTS to Identify Inhibitors of 5'UTR Stem-Loop Driven Prion Protein mRNA Translation in H4 Neuroglioblastoma Cells. [Related pubchem assays: 1827 (Project Summary), 1813 (Primary HTS)]; type: functional
[26] = inhibitors of firefly luciferase expression or activity, dose response, H4 neuroglioma cells, luminescence (AID 1990); type: functional, cell-based

T3 sequence (P37231 whole entry): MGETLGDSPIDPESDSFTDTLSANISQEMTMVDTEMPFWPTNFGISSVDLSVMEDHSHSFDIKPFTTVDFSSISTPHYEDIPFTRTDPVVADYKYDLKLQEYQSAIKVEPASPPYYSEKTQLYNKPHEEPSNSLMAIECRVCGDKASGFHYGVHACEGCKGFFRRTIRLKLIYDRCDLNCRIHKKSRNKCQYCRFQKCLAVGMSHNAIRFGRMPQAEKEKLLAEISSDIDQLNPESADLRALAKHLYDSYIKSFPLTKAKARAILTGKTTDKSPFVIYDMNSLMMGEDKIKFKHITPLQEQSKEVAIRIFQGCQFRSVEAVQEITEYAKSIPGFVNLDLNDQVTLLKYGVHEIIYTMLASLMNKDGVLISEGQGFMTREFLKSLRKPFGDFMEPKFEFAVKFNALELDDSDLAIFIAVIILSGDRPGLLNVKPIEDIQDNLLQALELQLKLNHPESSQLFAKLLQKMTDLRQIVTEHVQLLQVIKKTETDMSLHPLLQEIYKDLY
T3 sequence (Q15788 whole entry, further chain): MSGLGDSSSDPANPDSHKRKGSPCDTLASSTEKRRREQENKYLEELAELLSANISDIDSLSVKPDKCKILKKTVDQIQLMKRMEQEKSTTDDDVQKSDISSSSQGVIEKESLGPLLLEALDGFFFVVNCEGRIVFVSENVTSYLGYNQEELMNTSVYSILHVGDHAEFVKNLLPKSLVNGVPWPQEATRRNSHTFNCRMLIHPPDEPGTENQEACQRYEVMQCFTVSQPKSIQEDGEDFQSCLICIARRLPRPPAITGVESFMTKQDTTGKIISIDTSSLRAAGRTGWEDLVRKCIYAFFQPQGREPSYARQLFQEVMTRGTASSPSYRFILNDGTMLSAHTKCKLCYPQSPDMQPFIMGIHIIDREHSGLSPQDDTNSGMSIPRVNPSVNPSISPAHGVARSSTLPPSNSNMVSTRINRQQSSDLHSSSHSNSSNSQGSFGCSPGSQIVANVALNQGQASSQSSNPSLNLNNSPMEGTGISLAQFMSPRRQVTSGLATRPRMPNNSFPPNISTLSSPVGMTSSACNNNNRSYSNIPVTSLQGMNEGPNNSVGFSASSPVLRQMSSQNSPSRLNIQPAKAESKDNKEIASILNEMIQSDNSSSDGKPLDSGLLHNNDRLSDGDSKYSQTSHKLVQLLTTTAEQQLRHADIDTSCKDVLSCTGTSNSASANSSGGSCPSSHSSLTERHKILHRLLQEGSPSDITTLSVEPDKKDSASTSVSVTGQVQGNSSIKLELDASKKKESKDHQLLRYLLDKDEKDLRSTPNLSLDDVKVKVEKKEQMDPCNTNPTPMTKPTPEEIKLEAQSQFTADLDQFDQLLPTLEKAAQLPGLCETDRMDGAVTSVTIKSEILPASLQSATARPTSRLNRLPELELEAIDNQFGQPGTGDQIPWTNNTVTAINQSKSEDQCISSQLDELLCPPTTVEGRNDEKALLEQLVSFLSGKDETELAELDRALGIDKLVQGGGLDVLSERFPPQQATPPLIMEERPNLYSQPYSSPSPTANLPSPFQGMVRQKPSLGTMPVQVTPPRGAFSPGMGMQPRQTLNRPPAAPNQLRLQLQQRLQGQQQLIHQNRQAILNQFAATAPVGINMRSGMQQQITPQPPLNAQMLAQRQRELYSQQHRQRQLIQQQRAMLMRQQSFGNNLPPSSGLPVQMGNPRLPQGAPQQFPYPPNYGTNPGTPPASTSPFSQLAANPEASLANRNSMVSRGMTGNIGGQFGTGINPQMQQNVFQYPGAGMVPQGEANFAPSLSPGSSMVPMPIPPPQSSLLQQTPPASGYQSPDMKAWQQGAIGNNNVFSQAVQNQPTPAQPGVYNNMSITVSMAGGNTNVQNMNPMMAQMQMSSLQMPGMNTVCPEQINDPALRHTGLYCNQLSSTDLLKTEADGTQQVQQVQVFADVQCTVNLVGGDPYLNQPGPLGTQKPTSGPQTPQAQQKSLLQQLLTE
T2 sequence (P37231 whole entry): as the sequence (P37231 whole entry) above
T2 sequence (Q9Y6Q9 whole entry, further chain): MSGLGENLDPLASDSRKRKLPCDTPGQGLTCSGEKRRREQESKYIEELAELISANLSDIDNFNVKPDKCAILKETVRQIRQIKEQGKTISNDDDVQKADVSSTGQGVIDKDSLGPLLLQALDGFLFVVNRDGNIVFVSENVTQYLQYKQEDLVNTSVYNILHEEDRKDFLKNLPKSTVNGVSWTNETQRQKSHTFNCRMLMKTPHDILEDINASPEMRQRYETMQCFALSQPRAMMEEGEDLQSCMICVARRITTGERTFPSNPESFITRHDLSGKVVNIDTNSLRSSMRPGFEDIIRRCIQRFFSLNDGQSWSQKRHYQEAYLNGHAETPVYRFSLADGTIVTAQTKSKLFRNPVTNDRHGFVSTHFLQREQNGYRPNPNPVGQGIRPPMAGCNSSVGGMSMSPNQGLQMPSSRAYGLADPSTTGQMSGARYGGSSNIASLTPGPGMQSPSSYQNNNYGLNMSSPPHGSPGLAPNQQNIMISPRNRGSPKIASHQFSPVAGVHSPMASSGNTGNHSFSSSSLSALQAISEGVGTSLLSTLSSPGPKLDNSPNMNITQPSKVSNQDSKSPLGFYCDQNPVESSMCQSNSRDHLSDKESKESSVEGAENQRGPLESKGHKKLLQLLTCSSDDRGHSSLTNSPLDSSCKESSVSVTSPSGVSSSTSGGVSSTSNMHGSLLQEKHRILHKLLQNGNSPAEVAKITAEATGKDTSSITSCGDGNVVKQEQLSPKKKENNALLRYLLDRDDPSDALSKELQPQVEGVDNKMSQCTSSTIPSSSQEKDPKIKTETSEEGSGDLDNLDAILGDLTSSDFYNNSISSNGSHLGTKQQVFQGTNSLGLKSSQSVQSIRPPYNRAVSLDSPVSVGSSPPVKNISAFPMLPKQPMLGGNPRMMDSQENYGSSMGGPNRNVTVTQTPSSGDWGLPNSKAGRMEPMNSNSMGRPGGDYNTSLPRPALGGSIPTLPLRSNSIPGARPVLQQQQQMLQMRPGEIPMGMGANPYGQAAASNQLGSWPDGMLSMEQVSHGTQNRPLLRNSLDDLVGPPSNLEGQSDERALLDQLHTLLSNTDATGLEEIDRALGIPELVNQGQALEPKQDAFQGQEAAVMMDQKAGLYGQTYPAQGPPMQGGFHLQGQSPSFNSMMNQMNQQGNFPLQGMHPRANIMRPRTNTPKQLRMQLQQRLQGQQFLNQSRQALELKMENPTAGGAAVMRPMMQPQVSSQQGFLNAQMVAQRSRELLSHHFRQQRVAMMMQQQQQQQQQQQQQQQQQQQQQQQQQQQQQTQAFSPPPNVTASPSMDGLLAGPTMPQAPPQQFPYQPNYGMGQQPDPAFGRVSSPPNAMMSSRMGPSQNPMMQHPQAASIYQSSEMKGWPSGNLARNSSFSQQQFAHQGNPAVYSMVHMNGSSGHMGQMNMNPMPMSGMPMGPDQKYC

CCOC(=O)c1nc(NCc2ccccc2F)c2ccccc2n1
AC50 (HEK293 [1]): > 350 µM (inactive)
AC50 (Escherichia coli [2]): 52.7 µM (active)
AC50 (Escherichia coli [3]): > 150 µM (inactive)

COc1ccc2c(c1)CC/C2=N\OC(=O)c1ccccc1C
AC50 (HeLa): 51.1 µM (active)

Cc1cc(C)c2c(N)c(C(=O)Nc3ccc(C)c(C)c3)sc2n1
IC50 [4]: > 67.6 µM (inactive)
IC50 (HEK293 [5]): > 67.6 µM (inactive)

CCn1c(=O)cc(SCC(=O)Nc2ccc3c(c2)OCCO3)c2ccccc21
EC50 [6]: > 79.4 µM (not active)
EC50 [7]: 7.45 µM (active)
EC50 [8]: 7.21 µM (active)

CN(C)c1ccnc2sc3c(SCc4ccc(Cl)cc4)ncnc3c12
AC50 (HeLa): 63.3 µM (active)

Cn1c(=O)c2c(ncn2Cc2ccc(Cl)c(Cl)c2)n(C)c1=O
IC50 [9]: 7.05 µM (active)
IC50 [10]: 16.3 µM (active)
IC50 (Bcl-2-related protein A1): > 20 µM (inactive)

CC(=O)c1ccc(NC(=O)CSc2nnc(C3CC3)n2C2CC2)cc1
AC50 (Escherichia coli [2]): 109 µM (active)

COc1ccc(NC(=O)C2C3C=CC(C3)C2C(=O)NCc2ccco2)c(OC)c1 (stereo not drawn)
IC50 (Aminopeptidase N): 89.2 µM (active)

Cn1cc(Cl)c(-c2nnc(S)n2-c2ccccc2)n1
EC50 [6]: > 79.4 µM (not active)
EC50 [7]: > 79.4 µM (inactive)
EC50 [8]: > 79.4 µM (not active)

COc1cc2nc(N3CCN(C(=O)c4ccco4)CC3)nc(N)c2cc1OC [PRAZOSIN HYDROCHLORIDE]
CC50 (Vero): 16.9 µM (active)

c1ccc2c(c1)CC/C2=N/Nc1nc2ccccc2[nH]1
EC50 [11]: 2.6 µM (active)
EC50 [12]: > 79.4 µM (not active)
EC50 [13]: > 79.4 µM (not active)
EC50 [14]: > 30 µM (not active)
EC50 [15]: > 79.4 µM (not active)

Cc1cc(CNC(=O)c2cc(COc3ccc(F)c(F)c3)on2)nn1C
AC50 (HeLa): 66.8 µM (active)

c1ccc(CCn2nnc3ccccc32)cc1
AC50 (HeLa): 207 µM (active)

COc1cc2c(cc1OC)CN(C(=O)c1ccc([N+](=O)[O-])o1)CC2
CC50 [16]: > 40 µM (active)
EC50 (H4): > 120 µM (not active)
EC50 [17]: 11.6 µM (active)
IC50 (cells): 0.14 µM (active)
EC50 [18]: 37.5 µM (active)

NC(=O)N/N=C\c1cc(Br)ccc1O
IC50 (Aminopeptidase N): 50.6 µM (active)

CCCc1cc(C(=O)Nc2cc(C)ccc2O)no1
IC50 [19]: > 80 µM (inactive)

C=CC[C@@H](CC/C=C/C=C/CC/C=C\[C@@H]1CSC([C@@H]2C[C@@H]2C)=N1)OC
IC50 [19]: > 80 µM (inactive)

Cc1cccc(N2CCN(C(=O)c3c(-c4ccccc4)noc3C)CC2)c1C
EC50 [20]: 6.76 µM (active)
EC50 [21]: 2.58 µM (active)
EC50 (BJ [22]): 4.1 µM (active)
EC50 (BJ [23]): 89.6 µM (active)
EC50 (BJ [24]): 2.67 µM (active)
IC50 [19]: > 80 µM (inactive)
EC50 [25]: 17.1 µM (active)
EC50 [26]: 10.9 µM (active)

CC(C)CNC(=O)COC(=O)c1ccccc1OCC(=O)Nc1ccc(Br)cc1
EC50 [12]: > 79.4 µM (not active)
EC50 [13]: > 79.4 µM (not active)
EC50 [15]: > 79.4 µM (not active)

O=C(N/N=C/c1cccn1-c1ccc([N+](=O)[O-])cc1)c1cccnc1
CC50 (Vero): > 25 µM (active)

C=C(C)c1cccc(C(C)(C)NC(=O)Nc2ccc(C)cn2)c1
IC50 (Aminopeptidase N): 41.3 µM (active)

CCOC(=O)C1=C(COC(=O)c2ncc(Cl)c(Cl)c2Cl)NC(=O)NC1C (stereo not drawn)
IC50 [9]: 9.23 µM (active)
IC50 [10]: 7.88 µM (active)
IC50 (Bcl-2-related protein A1): > 20 µM (inactive)

CCN(CC)CCOC(=O)c1ccc(NC(=O)c2cn(-c3ccccc3)nc2-c2cccs2)cc1
IC50 [9]: > 20 µM (inactive)
IC50 [10]: 8.78 µM (active)
IC50 (Bcl-2-related protein A1): > 20 µM (inactive)
